Test results as given in article PMC6151385, “Simultaneous Determination of Seven Phenolic Acids in Rat Plasma Using UHPLC-ESI-MS/MS after Oral Administration of Echinacea purpurea Extract” (Molecules : A Journal of Synthetic Chemistry and Natural …, 2017).

Key:
[1] = Stability of the analytes in rat plasma QC samples under different storage conditions; type: physicochemical; settings: post-preparation samples, 12 h at 4 °C, n = 6
Method: The post-preparation samples were analyzed after storage for 12 h at 4 °C. The peak area ratio response of stability samples was determined and versus those freshly prepared. For all stability results, the analyzing samples were considered stable when the percentage of relative error (RE) was within ±15% compared with freshly prepared QC samples.

[2] = as above; type: physicochemical; settings: n = 6; for Stability (RE%) Short-Term: 4 h at room temperature; for Stability (RE%) Freeze-Thaw: three freeze-thaw cycles (−20 °C / ambient); for Stability (RE%) Long-Term: −20 °C for 2 weeks
[3] = Pharmacokinetic study of seven phenolic acids in rat plasma after oral administration of E. purpurea extract (UHPLC-ESI-MS/MS); type: in vivo; settings: male SD rats, oral E. purpurea extract 10 g/kg, n = 12, mean ± SD; for AUC(0-inf) / AUC(0-t) / Cmax / Tmax / half-life: Sprague-Dawley, rat
Method: Twelve male Sprague-Dawley (SD) rats (body weight 220 ± 20 g) were provided by Heilongjiang University of Chinese Medicine (Harbin, China). Each rat fasted 12 h before administration, with free drinking during the experiment. Blood samples were obtained from rats after oral administration of the extract of E. purpurea with a dose of 10 g/kg body weight. Blood samples (0.25 mL) of the retinal venous plexus were taken at 0.083, 0.25, 0.75, 1.0, 1.5, 2, 3, 4, 6, 8, 12, 24 and 36 h, then moved immediately into a 0.5 mL centrifuge tube that was spread with heparin at each time point. Meanwhile, the animal blood was centrifuged at 13,000 rpm for 5 min at 4 °C. The plasma was frozen in a −20 °C refrigerator in case of deterioration.
First, the frozen plasma was thawed at room temperature and then a liquid–liquid extraction (LLE) method was utilized. Then, a 100 μL aliquot of each plasma sample was removed except for the calibration standards which was mixed with 10 μL IS into a 10 mL glass tube. We continued by adding 100 μL methanol and 100 μL 30% formic acid, vortex-mixing for 1 min, then extracted 3 mL ethyl acetate, vortex-mixing for 3 min, centrifuged for 5 min (3500 rpm), and transferred the upper organic layer into a new tube. The layer of ethyl acetate was dried with a stream of nitrogen, the dry residue was dissolved with a 100 μL mobile phase, vortexed for 2 min and samples were filtered by a 0.22 μm microporous membrane. A 10 μL aliquot was injected into the UHPLC-ESI-MS/MS system.
The rat plasma concentration-time curves of seven compounds were plotted. After oral administration of E. purpurea extract in twelve rats, the maximum drug concentration in rat plasma (Cmax) and the time to reach maximum drug concentration (Tmax) were directly obtained from concentration-time data. The elimination rate constant (Ke) was calculated by linear regression of the terminal points in a semi-log plot of the plasma concentration against time. The elimination half-life (T1/2) was calculated by the formula T1/2 = 0.693/Ke. Other pharmacokinetic parameters including the area under the concentration-time curve (AUC0→t), and the area under the plasma concentration-time curve to time infinity (AUC0→∞) were calculated using non-compartmental pharmacokinetics analysis.

Stability (RE%) Post-Preparative ([1]; high QC) [%] | Stability (RE%) Post-Preparative ([1]; low QC) [%] | Stability (RE%) Post-Preparative ([1]; medium QC) [%] | Stability (RE%) Short-Term ([2]; high QC) [%] | Stability (RE%) Freeze-Thaw ([2]; high QC) [%] | Stability (RE%) Long-Term ([2]; high QC) [%] | Stability (RE%) Short-Term ([2]; low QC) [%] | Stability (RE%) Freeze-Thaw ([2]; low QC) [%] | Stability (RE%) Long-Term ([2]; low QC) [%] | Stability (RE%) Short-Term ([2]; medium QC) [%] | Stability (RE%) Freeze-Thaw ([2]; medium QC) [%] | Stability (RE%) Long-Term ([2]; medium QC) [%] | AUC(0-inf) [3] [ng·h/mL] | AUC(0-t) [3] [ng·h/mL] | Cmax [3] [ng/mL] | Tmax [3] [h] | half-life [3] [h] | T1/2 [3] [h] | SMILES
−4.01 | 9.29 | −5.47 | 4.80 | −0.52 | 3.65 | 2.03 | −0.11 | −2.93 | 10.18 | 6.57 | 2.30 | 2050 ± 116 | 1930 ± 123 | 127 ± 18.1 | 0.77 ± 0.07 | 7.45 ± 0.87 | – | O=C(O)c1ccc(O)c(O)c1 [3,4-Dihydroxy benzoic acid, 3,4-dihydroxybenzoic acid]
7.71 | −6.42 | 10.47 | −2.50 | −1.01 | 2.81 | 10.62 | 10.03 | −3.31 | −0.46 | 2.63 | 0.21 | 1950 ± 176 | 1640 ± 122 | 145 ± 11.6 | 1.96 ± 0.14 | 14.9 ± 5.37 | – | O=C(O)c1ccc(O)cc1 [4-Hydroxy benzoic acid, 4-hydroxybenzoic acid]
9.83 | 10.35 | 3.89 | 6.12 | 6.15 | −1.54 | 7.45 | 7.79 | 6.01 | −0.16 | 2.18 | 1.00 | 9330 ± 442 | 9220 ± 453 | 855 ± 35.9 | 8 | 5.31 ± 0.5 | – | O=C(O)/C=C/c1ccc(O)c(O)c1 [Caffeic acid, caffeic acid]
−4.91 | −0.89 | 4.84 | −8.77 | −13.12 | −1.89 | −4.21 | −7.10 | 7.93 | 4.61 | −3.80 | 6.80 | 6020 ± 498 | 5620 ± 453 | 359 ± 43.8 | 8 | 8.48 ± 0.71 | – | COc1cc(/C=C/C(=O)O)ccc1O [Ferulic acid, ferulic acid]
−6.08 | −10.74 | −7.64 | −5.73 | −2.61 | −1.30 | −1.95 | −3.75 | −0.66 | −1.50 | 4.48 | −0.79 | 1950 ± 164 | 1650 ± 133 | 122 ± 16.4 | 1.54 ± 0.14 | 13.2 ± 1.66 | – | COc1cc(C(=O)O)cc(OC)c1O [Syringic acid, syringic acid]
−8.03 | 9.11 | −6.34 | 1.59 | 5.28 | −0.32 | 2.24 | −6.56 | 2.91 | −0.67 | 5.74 | −0.37 | 3440 ± 234 | 3140 ± 264 | 228 ± 11.9 | 0.75 | – | 8.89 ± 1.12 | COc1cc(C(=O)O)ccc1O [Vanillic acid, vanillic acid]
7.12 | 8.52 | 11.50 | −4.81 | −8.78 | −5.30 | −3.59 | −7.57 | −6.75 | 1.57 | −0.82 | −5.40 | 3440 ± 218 | 3130 ± 156 | 293 ± 16.4 | 0.75 | 9.32 ± 1.29 | – | O=C(O)/C=C/c1ccc(O)cc1 [p-Coumaric acid, p-coumaric acid]
